# Experimental data taken from patent publication US10011571B2, “Preparation method for aromatic heterocyclic compound used as selective JAK3 and/or JAK1 kinase inhibitor and application of aromatic heterocyclic compound” (SHENZHEN CHIPSCREEN BIOSCIENCES, LTD., priority 2014, dated 2018).
# Tests used:
# JAK3 = JAK3 (Homo sapiens (Human), UniProt P52333); assay: Z'-LYTE enzymatic activity detection, JAK3; assay type: biochemical; conditions: test compound 30 nM; for inhibition at 0.03 µM: read-out: JAK3 % inhibitory rate @30 nM
# Method: (§1) The basic principle of in vitro enzymatic activity assay is based on the difference between the intensities of fluorescence signals generated at different wavelengths (445 nm and 520 nm) from the phosphorylated substrate and non-phosphorylated substrate, in which the specific fluorescence-labeled substrate is phosphorylated by the kinase. When different test compounds are added, the inhibition of kinase activity is represented as the different degrees of substrate phosphorylation, and thus as the different intensities of fluorescence signal, based on which the inhibitory activity of the compound on the kinase can be calculated. Basic detection principle is illustrated in FIG. 1.
# (§2) In an enzymatic inhibitory activity detection, GST-labeled human recombinant JAK kinases, including JAK1/PV4774, JAK2/PV4210, JAK3/PV3855, TYK2/PV4790 and their corresponding specific substrates, including Tyr6 (Z′-LYTE® Kinase Assay Kit-Tyrosine 6 Peptide, JAK1/PV4122), Tyr4 (Z′-LYTE® Kinase Assay Kit-Tyrosine 4 Peptide, JAK2/PV3193), Tyr4 (Z′-LYTE® Kinase Assay Kit-Tyrosine 4 Peptide, JAK3/PV3193), Tyr3 (Z′-LYTE® Kinase Assay Kit-[…], TYK2/PV3192) are used. In all tests, development reagent A (PV3297) was used as the test agent. All materials mentioned above were purchased from Invitrogen.
# (§3) (1) Preparation: kinase reaction buffer (working solution) is prepared according to the instruction; a concentration gradient of the test compound is prepared by dilution using the kinase reaction buffer (the highest compound concentration is 10 μM for JAK1, JAK2, and TYK2 detection, and 1 μM for JAK3 detection, respectively).
# (§4) (2) 10 μl of reaction system, comprising 2.5 μL test compound, 5 μL kinase reaction buffer and 2.5 μL ATP solution (provided by the kit), is mixed and reaction is performed at room temperature for 1 h.
# (§5) (3) Controls, including a solvent control without the test compound, a negative control without ATP and a positive control with the phosphorylated substrate, are tested together with the detection. All tests are carried out in triplicate.
# (§6) (4) After the enzymatic reaction, 5 μL pre-formulated development buffer is added, and reaction is performed at room temperature for 1 h. Subsequently, the reaction is terminated by adding 5 μL stop buffer.
# (§7) (5) The fluorescence signal in each well is detected by an Ascent Fluoroskan FL reader (Thermo Labsystems) at an excitation wavelength of 400 nm, and emission wavelengths of 445 nm and 520 nm. The proportion of substrate phosphorylation is obtained by reference to the fluorescence signal intensity C445/F520.
# (§8) (6) The enzymatic inhibitory rate of the test compound can be calculated based on the following equation: Inhibitory rate (%)=1−the proportion of substrate phosphorylation in the detection well/the proportion of substrate phosphorylation in the solvent control well. The half-inhibitory concentration (IC50) can be calculated using an IC50 calculator based on the inhibitory rates of phosphorylation for the test compounds at different concentration gradients.
# (§9) Based on the above method, the compounds described herein are enzymatically evaluated in vitro for JAKs (the concentration of the test compound is 30 nM for JAK3 and JAK2 test, and 300 nM for JAK1 test) using Xeljanz (tofacitinib citrate) as the positive control.
# JAK1 = JAK1 (Homo sapiens (Human), UniProt P23458); assay: Z'-LYTE enzymatic activity detection, JAK1; assay type: biochemical; conditions: test compound 300 nM; for inhibition at 0.3 µM: read-out: JAK1 % inhibitory rate @300 nM
# Method: as §1, §2, §3, §4, §5, §6, §7, §8, §9
# JAK2 = JAK2 (Homo sapiens (Human), UniProt O60674); assay: Z'-LYTE enzymatic activity detection, JAK2; assay type: biochemical; conditions: test compound 30 nM; for inhibition at 0.03 µM: read-out: JAK2 % inhibitory rate @30 nM
# Method: as §1, §2, §3, §4, §5, §6, §7, §8, §9
# CTLL-2 cells = assay: Cell growth activity assay (MTS), CTLL-2 cell model; assay type: cell-based, mouse; conditions: 24 h; for activity at 0.3 µM: Mus musculus, CTLL-2, 300 nM, read-out: CTLL-2 % growth rate @300 nM
# Text: (§10) MTS assay is a routine method for cell toxicity detection. The basic principle is based on the capacity of dehydrogenase in the mitochondria of living cells to reduce a novel yellow […] MTS to formazan, so that the amount of living cells is proportional to the amount of formazan product by detecting the absorbance at 490 nm (OD), thereby speculating the amount of living cells according to the OD value, and understanding the capacity of the test compound to inhibit the growth of cells or to kill the cells.
# In this experiment, mouse T-cell line CTLL-2 was used. The proliferation and growth of this cell line strongly depend on IL-2, and it is commonly used to evaluate the active titer of exogenous IL-2. By inhibiting the activity of kinase JAK1/3, the proliferation of CTLL-2 can be inhibited under in vitro culture. The activation and proliferation of T-cell is also important pathological characteristics for various immunological diseases. Thus, this model is also pathologically related.
# By comparing the change of absorbance generated by the cells treated by the test compounds using MTS assay, the growth inhibitory activity of the test compounds on the model cells can be realized, and thereby potential inhibitory activity of the compounds on JAK1/3 pathway can be evaluated.
# (§11) MTS is performed according to routine procedure in a 96-well plate.
# (§12) The model cells are inoculated into each well of the 96-well plate at an appropriate concentration (about 20,000 cells/well). After 24 h, the test compounds are added at different concentration gradients (the highest concentration of 10 μM). A solvent control (DMSO) and a negative control are also performed at the same time. Each experiment is repeated for 3 times. The cells are detected after cultured for another 24 h.
# CTLL-2 is a suspended cell. After incubation, 20 μL pre-formulated mixture of MTS and PMS (in a ratio of 20:1) is directly added to each well. After incubation at 37° C. for 2 h, it is then detected by a microplate reader (490 nm).
# The effect of the test compound on cell growth is calculated by comparing the change of OD values between the test well and the solvent control well, after subtracting the background of the negative control. For the test compounds at different concentration gradients, the inhibitory rates on the growth of model cells and their half-growth inhibitory concentrations (GI50) are each calculated.
# Based on the above method, cytological evaluation is performed to the compounds described herein (for the detection of CTLL-2 cell, the concentration of the test compound is 300 nM; for the detection of HeLa and HUVEC cell, the concentration of the test compound is […]).
# HeLa cells = assay: Cell growth activity assay (MTS), HeLa cell model; assay type: cell-based, human; parameters: activity: dose or concentration left out as unconfirmed; conditions: 72 h; for activity: Homo sapiens, HeLa, read-out: HeLa % growth rate
# Text: as §10
# HeLa cell is a human cervical cancer cell line, and belongs to epithelial tumor cell line; HUVEC is a human umbilical vein endothelial cell, and belongs to primary endothelial cell; both types of cells express all subtypes except for JAK3.
# The change of JAK kinase activity has no significant influence on other cell types except for the immune cells, and both cell models mentioned above are mainly used to evaluate whether there are any other kinase targets besides JAK kinases or there are nonselective cell toxicities.
# In this experiment, a cultured cell model is incubated with the test compounds at different concentrations for a specific duration. The effect of the treatment by the test compound on the growth of cells is detected using MTS assay.
# as §11
# as §12, with “(about 5000” for “(about 20,000”, “highest final” for “highest”, “concentration is 40” for “concentration of 10”, “another 72” for “another 24”
# After all culture medium is aspirated out of the well, 100 μL fresh medium and 20 μL pre-formulated mixture of MTS and PMS (in a ratio of 20:1) are added to each well. After incubation at 37° C. for 2 h, it is then detected by a microplate reader (490 nm).
# The cell growth inhibitory rate and GI50 of the test compound are calculated as above.
# Based on the above method, cytological evaluation is performed to the compounds described herein (for the detection of CTLL-2 cell, the concentration of the test compound is 300 nM; […]).
# Chain of JAK3 (P52333 whole entry): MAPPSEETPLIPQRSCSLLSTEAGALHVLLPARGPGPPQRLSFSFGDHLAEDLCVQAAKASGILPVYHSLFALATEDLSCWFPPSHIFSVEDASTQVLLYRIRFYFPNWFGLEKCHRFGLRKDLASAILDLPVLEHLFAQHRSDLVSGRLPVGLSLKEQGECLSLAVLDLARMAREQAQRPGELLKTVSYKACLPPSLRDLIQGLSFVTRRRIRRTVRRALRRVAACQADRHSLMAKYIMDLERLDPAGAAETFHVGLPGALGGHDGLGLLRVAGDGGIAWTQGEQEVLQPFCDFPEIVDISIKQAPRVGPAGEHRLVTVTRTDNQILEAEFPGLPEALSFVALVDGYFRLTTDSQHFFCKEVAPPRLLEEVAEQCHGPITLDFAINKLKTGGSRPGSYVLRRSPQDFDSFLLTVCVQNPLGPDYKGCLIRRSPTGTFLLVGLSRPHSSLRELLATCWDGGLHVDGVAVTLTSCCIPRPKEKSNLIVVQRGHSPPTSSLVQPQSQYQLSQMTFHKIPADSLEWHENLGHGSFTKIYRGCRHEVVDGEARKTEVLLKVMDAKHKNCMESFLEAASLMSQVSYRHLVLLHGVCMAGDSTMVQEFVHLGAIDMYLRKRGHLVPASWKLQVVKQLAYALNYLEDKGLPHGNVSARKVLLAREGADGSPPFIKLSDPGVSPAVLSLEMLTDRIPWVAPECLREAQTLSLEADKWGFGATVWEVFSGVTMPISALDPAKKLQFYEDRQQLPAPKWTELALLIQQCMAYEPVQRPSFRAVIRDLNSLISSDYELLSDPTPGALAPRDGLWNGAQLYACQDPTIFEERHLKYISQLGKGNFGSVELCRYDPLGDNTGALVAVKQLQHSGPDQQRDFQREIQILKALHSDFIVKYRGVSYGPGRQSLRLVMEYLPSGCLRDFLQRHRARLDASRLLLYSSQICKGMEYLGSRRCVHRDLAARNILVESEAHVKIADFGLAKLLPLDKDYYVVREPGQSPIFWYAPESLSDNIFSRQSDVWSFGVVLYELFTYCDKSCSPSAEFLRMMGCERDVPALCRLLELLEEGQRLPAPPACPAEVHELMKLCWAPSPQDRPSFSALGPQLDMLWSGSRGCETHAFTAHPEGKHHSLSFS
# Chain of JAK2 (O60674 whole entry): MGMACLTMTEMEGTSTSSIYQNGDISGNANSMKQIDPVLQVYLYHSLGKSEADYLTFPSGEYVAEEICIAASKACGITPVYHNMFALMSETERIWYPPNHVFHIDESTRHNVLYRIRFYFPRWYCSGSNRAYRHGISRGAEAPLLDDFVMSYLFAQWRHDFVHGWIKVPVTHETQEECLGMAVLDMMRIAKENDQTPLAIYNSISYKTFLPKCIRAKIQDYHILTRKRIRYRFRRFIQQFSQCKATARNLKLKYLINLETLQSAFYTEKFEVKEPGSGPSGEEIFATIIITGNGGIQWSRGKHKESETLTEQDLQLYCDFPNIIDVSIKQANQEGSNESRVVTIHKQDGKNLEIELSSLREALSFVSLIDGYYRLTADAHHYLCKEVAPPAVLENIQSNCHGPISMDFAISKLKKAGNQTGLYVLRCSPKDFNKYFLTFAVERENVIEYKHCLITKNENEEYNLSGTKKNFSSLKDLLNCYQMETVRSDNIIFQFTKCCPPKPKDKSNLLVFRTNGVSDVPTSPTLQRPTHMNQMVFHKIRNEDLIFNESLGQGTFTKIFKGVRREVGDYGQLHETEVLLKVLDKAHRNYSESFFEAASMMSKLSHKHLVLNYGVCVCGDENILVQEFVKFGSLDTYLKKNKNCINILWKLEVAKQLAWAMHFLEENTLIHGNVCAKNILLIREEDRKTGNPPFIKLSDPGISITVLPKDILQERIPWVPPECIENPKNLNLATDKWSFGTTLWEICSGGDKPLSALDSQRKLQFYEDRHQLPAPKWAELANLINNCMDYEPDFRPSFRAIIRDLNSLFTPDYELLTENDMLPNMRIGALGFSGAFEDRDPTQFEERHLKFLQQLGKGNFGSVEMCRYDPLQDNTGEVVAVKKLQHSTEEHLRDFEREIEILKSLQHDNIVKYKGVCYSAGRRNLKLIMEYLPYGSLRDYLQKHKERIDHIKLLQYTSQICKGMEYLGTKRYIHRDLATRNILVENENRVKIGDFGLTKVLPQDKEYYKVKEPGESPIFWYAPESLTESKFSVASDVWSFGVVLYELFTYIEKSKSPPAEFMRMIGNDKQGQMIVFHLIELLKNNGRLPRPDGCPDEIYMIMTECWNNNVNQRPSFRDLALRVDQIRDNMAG
# Chain of JAK1 (P23458 whole entry): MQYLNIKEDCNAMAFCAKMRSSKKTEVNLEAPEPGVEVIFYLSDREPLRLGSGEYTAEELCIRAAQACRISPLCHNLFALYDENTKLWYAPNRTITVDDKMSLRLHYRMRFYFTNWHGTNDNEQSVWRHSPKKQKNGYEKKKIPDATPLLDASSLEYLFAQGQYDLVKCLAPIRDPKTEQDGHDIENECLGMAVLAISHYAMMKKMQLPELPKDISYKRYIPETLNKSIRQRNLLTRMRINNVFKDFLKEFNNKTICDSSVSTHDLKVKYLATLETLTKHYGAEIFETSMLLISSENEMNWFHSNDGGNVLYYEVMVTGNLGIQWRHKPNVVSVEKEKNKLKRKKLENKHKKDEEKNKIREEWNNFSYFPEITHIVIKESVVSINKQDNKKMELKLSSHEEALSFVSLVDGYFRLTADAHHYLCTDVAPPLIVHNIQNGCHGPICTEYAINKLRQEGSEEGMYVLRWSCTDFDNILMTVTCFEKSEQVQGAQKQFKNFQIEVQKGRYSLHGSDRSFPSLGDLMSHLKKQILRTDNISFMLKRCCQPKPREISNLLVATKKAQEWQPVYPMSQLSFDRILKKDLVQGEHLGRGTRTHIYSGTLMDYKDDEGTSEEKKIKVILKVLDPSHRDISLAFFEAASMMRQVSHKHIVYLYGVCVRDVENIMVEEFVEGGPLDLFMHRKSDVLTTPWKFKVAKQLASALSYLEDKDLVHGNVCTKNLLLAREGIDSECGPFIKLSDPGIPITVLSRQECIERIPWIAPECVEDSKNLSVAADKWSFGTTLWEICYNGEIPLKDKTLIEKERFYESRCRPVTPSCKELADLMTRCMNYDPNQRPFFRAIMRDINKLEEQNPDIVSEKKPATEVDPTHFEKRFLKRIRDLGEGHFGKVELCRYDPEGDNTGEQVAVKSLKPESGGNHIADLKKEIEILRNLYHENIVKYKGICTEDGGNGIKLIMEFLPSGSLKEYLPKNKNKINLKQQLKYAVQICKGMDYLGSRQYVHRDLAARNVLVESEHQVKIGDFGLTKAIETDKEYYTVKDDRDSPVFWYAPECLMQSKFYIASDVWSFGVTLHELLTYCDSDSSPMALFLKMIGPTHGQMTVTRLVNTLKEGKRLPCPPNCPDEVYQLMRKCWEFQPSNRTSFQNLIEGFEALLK
Compound,JAK3 RV (ratio between the inhibitory rate of the test compound and that of Xeljanz) (JAK3),inhibition at 0.03 µM (JAK3) [%],JAK1 RV (ratio between the inhibitory rate of the test compound and that of Xeljanz) (JAK1),inhibition at 0.3 µM (JAK1) [%],inhibition at 0.03 µM (JAK2) [%],JAK3 % inhibitory rate @30 nM (JAK3) [%],JAK1 % inhibitory rate @300 nM (JAK1) [%],JAK2 % inhibitory rate @30 nM (JAK2) [%],activity at 0.3 µM (CTLL-2 cells) [%],activity (HeLa cells) [%],CTLL-2 % growth rate @300 nM (CTLL-2 cells; 300 nM) [%],HeLa % growth rate @10 μM (HeLa cells) [%]
"C=CC(=O)N(C)c1cc(Nc2ncc(Cl)c(NCCCNC(=O)c3ccc(C(C)=O)cc3)n2)ccc1F [Example 111, 4-acetyl-N-(3-(5-chloro-2-(4-fluoro-3-(N-methylacrylamido)phenylamino)pyrimidinyl-4-amino)propyl)benzamide]",0.99,82,0.19,16,0,,,,3,67,,
"C=CC(=O)N(C)c1cc(Nc2ncc(Cl)c(NCCCNC(=O)c3ccc(C(F)F)cc3)n2)ccc1F [Example 115, N-(3-(5-chloro-2-(4-fluoro-3-(N-methylacrylamido)phenylamino)pyrimidinyl-4-amino)propyl)-4-difluoromethylbenzamide]",0.98,81,0.49,42,0,,,,3,71,,
"C=CC(=O)N(C)c1cc(Nc2ncc(Cl)c(NCCCCCCNC(=O)c3ccc(C#N)cc3)n2)ccc1F [Example 123, N-(6-(5-chloro-2-(4-fluoro-3-(N-methylacrylamido)phenylamino)pyrimidinyl-4-amino)hexyl)-4-cyanobenzamide]",0.95,,,,,79,0,0,,,5,5

# More lines, main results first:
JAK3 RV (ratio between the inhibitory rate of the test compound and that of Xeljanz) (JAK3),inhibition at 0.03 µM (JAK3) [%],JAK1 RV (ratio between the inhibitory rate of the test compound and that of Xeljanz) (JAK1),inhibition at 0.3 µM (JAK1) [%],inhibition at 0.03 µM (JAK2) [%],JAK3 % inhibitory rate @30 nM (JAK3) [%],JAK1 % inhibitory rate @300 nM (JAK1) [%],JAK2 % inhibitory rate @30 nM (JAK2) [%],Compound,activity at 0.3 µM (CTLL-2 cells) [%],activity (HeLa cells) [%],CTLL-2 % growth rate @300 nM (CTLL-2 cells; 300 nM) [%],HeLa % growth rate @10 μM (HeLa cells) [%]
1.01,84,0.53,45,0,,,,"C=CC(=O)N(C)c1cc(Nc2ncc(Cl)c(NCCCNC(=O)c3cccc(C#N)c3)n2)ccc1F [Example 95, N-(3-(5-chloro-2-(4-fluoro-3-(N-methylacrylamido)phenylamino)pyrimidinyl-4-amino)propyl)-3-cyanobenzamide]",3,3,,
1.04,86,0.87,74,0,,,,"C=CC(=O)N(C)c1cc(Nc2ncc(Cl)c(NCCCNC(=O)c3ccc(C(F)(F)F)c(F)c3)n2)ccc1F [Example 103, N-(3-(5-chloro-2-(4-fluoro-3-(N-methylacrylamido)phenylamino)pyrimidinyl-4-amino)propyl)-3-fluoro-4-trifluoromethylbenzamide]",3,55,,
1.01,84,0.79,67,0,,,,"C=CC(=O)N(C)c1cc(Nc2ncc(Cl)c(NCCCNC(=O)c3cc(F)c(F)c(F)c3F)n2)ccc1F [Example 107, N-(3-(5-chloro-2-(4-fluoro-3-(N-methylacrylamido)phenylamino)pyrimidinyl-4-amino)propyl)-2,3,4,5-tetrafluorobenzamide]",2,59,,
